Molecular target: T1, CYP11B1 (Homo sapiens, UniProt P15538)
T1 construct: Thus, the NCI-H295R cells have Cyp 11 B1 (steroid 11 p-hydroxylase); host or cells: NCI-H295R
T1 sequence (P15538 25-503): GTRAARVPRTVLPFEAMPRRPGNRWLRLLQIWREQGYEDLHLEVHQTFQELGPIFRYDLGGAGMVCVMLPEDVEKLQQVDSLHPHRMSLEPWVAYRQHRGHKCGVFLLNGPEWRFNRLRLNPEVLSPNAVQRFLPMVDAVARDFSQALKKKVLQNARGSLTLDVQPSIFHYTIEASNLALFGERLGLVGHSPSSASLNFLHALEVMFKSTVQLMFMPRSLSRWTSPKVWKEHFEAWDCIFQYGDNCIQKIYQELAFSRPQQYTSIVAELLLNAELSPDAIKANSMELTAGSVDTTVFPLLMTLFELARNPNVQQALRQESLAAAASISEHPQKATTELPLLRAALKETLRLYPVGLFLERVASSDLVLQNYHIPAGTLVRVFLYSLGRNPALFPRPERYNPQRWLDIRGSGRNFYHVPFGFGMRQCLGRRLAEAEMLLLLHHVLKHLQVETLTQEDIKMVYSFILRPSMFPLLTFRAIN
Assay: CYP11B1 inhibition in NCI-H295R cells (steroid release by radioimmunoassay)
Type: cell-based
Conditions: percentage of inhibitory rate at 100 nM; 11B1: CYP11B1
Text: The in vitro inhibitory activities for CYP 11 B1 can be determined by the following assay.
The cell line NCI-H295R was originally isolated from an adrenocortical carcinoma and has been characterized in the literature through the stimulable secretion of steroid hormones and the presence of the enymes essential for steroidogenesis. Thus, the NCI-H295R cells have Cyp 11 B1 (steroid 11 p-hydroxylase). The cells show the physiological property of zonally undifferentiated human foetal adrenocortical cells which, however, have the capacity to produce the steroid hormones which are formed in the three, phenotypically distinguishable zones in the adult adrenal, cortex.
The NCI-H295R cells (American Type Culture Collection, ATCC, Rockville, Md., USA) are grown in Dulbeoco's Modified Eagle Ham F-12 Medium (DME/F12), which has been I supplemented with Ulroser SF Serum (Soprachem, Cergy-Saint-Christophe, France), insulin, transferrin, selenite (1-T-S, Becton Dickinson Biosiences, Franklin lakes, NJ, USA) and antibiotics in 75 cm^2 cell culture vessels at 37° C. and in a 95% air-5% carbon dioxide atmosphere. The cells are subsequently transferred for colony formation into a 24-well incubation vessel. They are cultivated there in DME/F12 medium, which is now supplemented with 0.1% bovine serum instead of Ultroser SF for 24 hours. The experiment is initiated by cultivating the cells in DME/F12 medium which is supplemented with 0.1% bovine serum albumin and test compound, in the presence or absence of cell stimulants, for 72 hours. The test substance is added in a concentration range from 0.2 nanomolar to […]. […]
The excretion of aldosterone, cortisol, corticosterone and estradiol/estrone into the culture medium can be detected and quantified by commercially available; specific monoclonal antibodies in radioimmunoassays in accordance with the manufacturer's instructions.
Inhibition of the release of certain steroids can be used as a measure of the respective enzyme inhibition by the added test compounds. The dose-dependent inhibition of enzymic activity by a compound is calculated by means of an inhibition plot which is characterized by an IC50.
The IC50 values for active test compounds are ascertained by a simple linear regression analysis in order to construct inhibition plots without data weighting. The inhibition plot is calculated by fting a 4-parameter logistic function to the raw data points using the least squares method. The equation of the 4-parameter logistic function is calculated as follows: Y=(d−a)/((1+(x/c)b))+aI where: a=minimum data level b gradient I c=ICED d=maximum data level x=inhibitor concentration.

Question: With `CC(C)(C)C1C(=O)N(Cc2ccc(Cl)cc2)Cc2cncn21` (single isomer, unassigned) [Compound 6, 5-tert-Butyl-7-(4-chloro-benzyl)-7,8-dihydro-imidazo[1,5-a]pyrazin-6-one] as the compound, how does the “11B1 % I @ 100 nM” value read?
Answer: Its value is 98%.

Question: How did the “11B1 % I @ 100 nM” value turn out when `CCC(C)(C)C1C(=O)N(Cc2cccc(F)c2)CCc2cncn21` (single isomer, unassigned) [Compound 2, 4-(1,1-Dimethyl-propyl)-6-(3-fluoro-benzyl)-7,8-dihydro-6H-2,3a,6-triaza-azulen-5-one] was run?
Answer: Its value is 100%.

Question: Which “11B1 % I @ 100 nM” value does the source give for `N#Cc1ccc(CN2Cc3cncn3C(C3CC3)C2=O)cc1` (single isomer, unassigned) [Compound 8, 4-(5-Cyclopropyl-6-oxo-5,6-dihydro-8H-imidazo[1,5-a]pyrazin-7-ylmethyl)-benzonitrile] here?
Answer: Its value is 95%.

Source: patent US20090264420A1, “ORGANIC COMPOUNDS” (priority 2006, published 2009)
